Activity data for one compound are collected here from ChEMBL document CHEMBL6109178, “Species-Dependent Metabolism of a Covalent nsP2 Protease Inhibitor with In Vivo Antialphaviral Activity” (J Med Chem, 2025).

Each structure is given as a SMILES string. Activity calls are given as the source filed them. The calls are words filed in the database; no cut-off is given here.

Common to all, as to assay type: functional, organism-based
Test [1] has as its system Chikungunya virus. Kind of test: Antiviral activity against CHIKV infected in male C57BL/6 mouse assessed as reduction in viral level in left foot at 100 mg/kg, administered three times a day and measured after 48 hrs.
In test [2] the test system is Chikungunya virus. The experiment in a line: Antiviral activity against CHIKV infected in male C57BL/6 mouse assessed as reduction in viral level in spleen at 100 mg/kg, administered three times a day and measured after 48 hrs.
Test [3] concerns Chikungunya virus. Kind of test: Antiviral activity against CHIKV infected in male C57BL/6 mouse assessed as reduction in viral level in serum at 100 mg/kg, administered three times a day and measured after 48 hrs.
The subject of test [4] is Chikungunya virus. The experiment in a line: Antiviral activity against CHIKV infected in male C57BL/6 mouse assessed as reduction in viral level in right quad at 100 mg/kg, administered three times a day and measured after 48 hrs.
The subject of test [5] is Chikungunya virus. Kind of test: Antiviral activity against CHIKV infected in male C57BL/6 mouse assessed as reduction in viral level in left quad at 100 mg/kg, administered three times a day and measured after 48 hrs.
In test [6] the test system is Chikungunya virus. Kind of test: Antiviral activity against CHIKV infected in male C57BL/6 mouse assessed as reduction in viral level in right foot at 100 mg/kg, administered three times a day and measured after 48 hrs.

For the compound `CCOc1ccccc1-c1cc(C(=O)NC/C=C/S(C)(=O)=O)n[nH]1`, the result with Chikungunya virus [1] was inactive. In addition, the result with Chikungunya virus [2], with Chikungunya virus [4] and with Chikungunya virus [5] was Active. The results for the Activity result with Chikungunya virus [3] and with Chikungunya virus [6] were “Active; Reduction Of Small Level Of Virus Level Observed” and “Active; Viral Level Reduced In 4 Out Of 5 Mouse”, respectively.
